In patent publication US20220016196A1, “Aloe Based Compositions Comprising Polysaccharides and Polyphenols for Regulation of Homeostasis of Immunity” (Unigen, Inc., priority 2020, published 2022):

Tests used:
HMGB1 = assay: Inhibition of hyperoxia-induced HMGB1 release from macrophages (ELISA); assay type: cell-based, mouse; details: RAW 264.7 cells, 95% O2 24 hours, test substance 25 μg/mL, ELISA of supernatant
Protocol: Macrophages cultured under hyperoxic conditions experience oxidative stress, causing them to secrete HMGB1 to the cell culture media. To determine the efficacy of the Aloe-based composition and its components in reducing the accumulation of extracellular HMGB1 of cultured macrophages, RAW 264.7 cells were exposed for 24 hours to either 21% O2 (room air (RA)), or 95% O2 in the presence or absence of test substance at 25 μg/mL concentration. HMGB1 levels in cell culture supernatants were determined by ELISA at a single concentration of test substance in duplicate. The data are expressed as mean±SEM of one experiment assayed in duplicate. *p<0.05, **p<0.01, ****p<0.0001 compared to macrophages treated under hyperoxia with vehicle only. Control cells were treated with Sodium Salicylate (SS) as a positive control, which attenuates hyperoxia-compromised macrophage function and oxidative-stress-induced HMGB 1 release.

[1] = tested on: HSF cells (Human fibroblasts); assay: DNA damage of human fibroblasts induced by hydrogen peroxide (γH2AX); assay type: cell-based; details: γH2AX staining, H2O2 1 mM 4 h
Protocol: HSF cells (Human fibroblasts) were seeded in 96-well tissue culture plates and incubated at 37° C. and in 5% CO2 and 95% air with test substances. Treated HSF cells were subjected to DNA damage by incubating with H2O2 at a concentration of 1 mM for 4 h, then immunostained for γH2AX, a phosphorylated histone that is a marker of DNA double strand breaks. DAPI was used to stain the cell nucleus. Pictures taken by Image Xpress and analyzed with Meta Xpress. Catechin (100 μg/ml) was used as positive control with 70% reduction of DNA damage, as assessed by quantification of γH2AX staining. […]. Rosmarinic acid reduced DNA damage by 24% at 25 μg/mL.

HaCaT cells [2] = assay: Cytotoxicity (CCK viability) in HaCaT cells; assay type: cell-based, human; details: 25 μg/mL
Protocol: (§1) HaCaT cells (Human immortal keratinocyte cells) were seeded at a density of 8,000 cells/well in 96-well tissue culture plates and treated for 24 hours with test substance at 25 μg/mL. Cytotoxicity was evaluated to remove false positives (CCK >80% viability). DCFH-DA (a fluorescent probe) was added to cells to detect ROS production and incubated at 37° C. for 25 minutes. After exposure to UV irradiation under the solar simulator (Sol-UV-6 Solar Simulator) with ultraviolet filter for 10 minutes, the fluorescence value was measured at 488 nm (excitation) and 525 nm (emission) by Multimode Reader. Vitamin C was used as positive control treated at 40 μg/mL with 43% reduction of ROS production. At 25 μg/mL, Rosmarinic acid decreased ROS generation by 24%, compared to the level of UV exposed HaCaT cells. Organic extracts (OE) were tested at 50 μg/mL, while aqueous extracts were tested at 100 μg/mL. Fractions or pure compounds were tested at 25 μg/mL in this assay.

RAW 264.7 cells [3] = assay: Hyperoxia-induced dysfunctional macrophage phagocytosis assay; assay type: cell-based, mouse; details: RAW 264.7, 95% O2 24 hours, beads per cell as percent increase
Protocol: RAW 264.7 cells either remained at room air (21% O2) or were exposed to 95% O2 for 24 hours in the presence of test substance. Cells were then incubated with FITC-labeled latex mini-beads for 1 hour and stained with phalloidin and DAPI to visualize the actin cytoskeleton and nuclei, respectively. For quantification of phagocytic activity, at least 200 cells per group were counted and the numbers of beads per cell were represented as a percent increase compared to the 21% 02 (0 μg/ml) control group. Each value represents the mean±SEM of 3 independent experiments for each group, in duplicate. *, P<0.05 compared to the 21% O2 (0 μg/ml) control group.

RAW 264.7 cells [4] = assay: MTT assay in cultured RAW 264.7 cells under hyperoxia; assay type: cell-based, mouse; details: RAW 264.7, 95% O2 24 hours
Protocol: Cell viability was determined by MTT assay.

HaCaT cells [5] = assay: UVA&UVB induced ROS assay in HaCaT cell; assay type: cell-based, human; details: positive control, 40 μg/mL
Protocol: as §1, with “Cytotoxicity was evaluated to remove false positives (CCK >80% viability).” left out, “Vitamin C was used as positive control treated at 40 μg/mL with 43% reduction of ROS production. At 25 μg/mL, Rosmarinic acid decreased ROS generation by 24%, compared to the level of UV exposed HaCaT cells.” left out

[6] = DPPH assay, 100 mg/L (Hu et al., 2003); cited from earlier work
phospholipase A2 = phospholipase A2 from snake venom (Cuéllar et al 1996); cited from earlier work
Pseudomonas aeruginosa = assay: Bacterial clearance in the airways in hyperoxic and PA infected mice; assay type: in vivo, mouse; details: 24 hours after infection
[7] = tested on: Pseudomonas aeruginosa (PA) infected hyperoxic mice; assay: Hyperoxia-induced mortality in Pseudomonas aeruginosa (PA)-infected mice; assay type: in vivo, mouse
[8] = tested on: hyperoxic and PA infected mice; assay: Oxidative stress-exacerbated acute lung injury induced by bacterial infection (BAL total protein, biomarkers, histology); assay type: in vivo, mouse; details: hyperoxia + PA infected mice, Resveratrol 50 mg/kg
[9] = tested on: acute ear edema induced by tetradecanoyl phorbol acetate (TPA); details: acute ear edema induced by TPA (Cuellar et al 1997); cited from earlier work

For `CC(=O)Cc1cc(=O)c2c(C)cc(O)c([C@@H]3O[C@H](CO)[C@@H](O)[C@H](O)[C@H]3O)c2o1` [Aloesin], the HMGB1 inhibition (HMGB1) was 52.47.

With `O=C(/C=C/c1ccc(O)c(O)c1)O[C@H](Cc1ccc(O)c(O)c1)C(=O)O` [Rosmarinic acid] the “reduction of DNA damage” value ([1]; 25 μg/mL) was 24%, the “Viability (%)” value (HaCaT cells [2]) was 57% and the inhibition at 25 µg/mL (HMGB1; Mus musculus, RAW264.7) was 73%. The Phagocytosis (RAW 264.7 cells [3]; 12 μg/mL) was 51.00%, the Phagocytosis (RAW 264.7 cells [3]; 25 μg/mL) was 74.35% and the “MTT (% reduction)” value (RAW 264.7 cells [4]; 12 μg/mL) was 5.63%. The “MTT (% reduction)” value (RAW 264.7 cells [4]; 25 μg/mL) was 13.47%, the “MTT (% reduction)” value (RAW 264.7 cells [4]; 50 μg/mL) was 20.03% and the “MTT (% reduction)” value (RAW 264.7 cells [4]; 100 μg/mL) was 20.53%.

With `O=C1O[C@H]([C@@H](O)CO)C(O)=C1O` [Vitamin C] the “reduction of ROS production” value (HaCaT cells [5]) was 43%.

For `Cc1c(C)c2c(c(C)c1O)CC[C@@](C)(CCC[C@H](C)CCC[C@H](C)CCCC(C)C)O2` [a-tocopherol], the radical scavenging activity [6] is listed as 65.20%.

In the case of `Cc1cc(C(C)(C)C)c(O)c(C(C)(C)C)c1` [butylated hydroxytoluene], the radical scavenging activity [6] is listed as 70.52%.

In the case of `C=C(CC[C@@H](C(=O)O)[C@H]1[C@H](O)C[C@@]2(C)C3=CC[C@H]4C(C)(C)[C@@H](O)CC[C@]4(C)C3=CC[C@]12C)C(C)C` [dehydrotumulosic acid], the IC50 (phospholipase A2) is given as 845 µM.

With `Oc1ccc(C=Cc2cc(O)cc(O)c2)cc1` [resveratrol] the “Bacterial load in the airways, ×10^5 CFU/mL (Mean ± SE)” value (Pseudomonas aeruginosa; RES 50 mg/kg, hyperoxic and PA infected mice) was 2.4 ± 0.7 ×10^5 CFU/mL, the “bacterial load in the airways vs hyperoxia + vehicle (O2)” value (Pseudomonas aeruginosa; UP360 500 mg/kg, Resveratrol 50 mg/kg oral, >99% O2 48 hours, PA intranasal) was “airway bacterial load was significantly lower” and the mortality rate ([7]; 7 days prophylactic treatment, hyperoxia 2 days, PA inoculated, 24 hours post-inoculation) was 27%. For the same compound, the Dead animals ([7]; RES 50 mg/kg, hyperoxia + PA inoculation, 11 total animals) was 3, the Mortality % ([7]; RES 50 mg/kg, hyperoxia + PA inoculation, 24 hours post-inoculation) was 27.27% and the lung injury [8] was “significantly reduce lung injury”.

For Catechin, the “reduction of DNA damage” value ([1]; 100 μg/ml) was 70%.

In the case of hydrotumulosic acid, the IC50 [9] is listed as 0.68 nmol/ear.
